Data as given in US20260217719A1, “CDK2 INHIBITORS” (BLUEPRINT MEDICINES CORPORATION, priority 2023, published 2026).

Assays:
[1] = target: T1, CDK2/Cyclin E (Homo sapiens, UniProt P24941); experiment: Enzymatic phosphorylation activity assay (Caliper mobility shift), CDK2/Cyclin E; assay type: biochemical; settings: read-out: Enzyme CDK2/cyclin E IC50
T1 construct: purchased Eurofins 14-475
Procedure: (§1) Inhibitory effects of the compounds of the disclosure were measured in biochemical assays that measure the enzymatic phosphorylation activity of CDK enzyme in complex of Cyclin proteins phosphorylates 7.5 micromolar fluorescently labelled peptide substrate, 5-FAM-QSPKKG-CONH2, (FL-Peptide 18, Perkin Elmer, 760362) in the presence of adenosine-5′-triphosphate (ATP) and varying concentrations of the test compound in 100 mM 2-[4-(2-hydroxyethyl)piperazin-1-yl] ethanesulfonic acid (HEPES), pH 7.5, 10 mM MgCl2, 0.015% Brij-35, 1 mM dithiothreitol (DTT), 1.0% dimehylsulfoxide (DMSO). […] Reactions proceeded until between 10% to 20% total peptides were phosphorylated at room temperature (25° C.) and were terminated with 35 mM 2,2′,2″,2″-(ethane-1,2-diyldinitrilo)tetraacetic acid (EDTA). Product was detected using the Caliper mobility shift detection method where the phosphorylated peptide (product) and substrate were electrophoretically separated and measured. Percent activity was plotted against log concentration of compound and points to generate an apparent IC50. The following CDK enzymes in complex with different cyclin proteins were used in these assays: • CDK1/Cyclin B1, GST-tag (BPS, 40454), 1.5 nM used in the assay • CDK2/Cyclin E (Eurofins, 14-475), 1.25 nM used in the assays

[2] = target: T2, CDK1/Cyclin B1, GST-tag (Homo sapiens, UniProt P06493); experiment: Enzymatic phosphorylation activity assay (Caliper mobility shift), CDK1/Cyclin B1; assay type: biochemical; settings: read-out: Enzyme CDK1/cyclin B1 IC50
T2 construct: GST; purchased BPS 40454
Procedure: as §1

T2 sequence (P06493 whole entry): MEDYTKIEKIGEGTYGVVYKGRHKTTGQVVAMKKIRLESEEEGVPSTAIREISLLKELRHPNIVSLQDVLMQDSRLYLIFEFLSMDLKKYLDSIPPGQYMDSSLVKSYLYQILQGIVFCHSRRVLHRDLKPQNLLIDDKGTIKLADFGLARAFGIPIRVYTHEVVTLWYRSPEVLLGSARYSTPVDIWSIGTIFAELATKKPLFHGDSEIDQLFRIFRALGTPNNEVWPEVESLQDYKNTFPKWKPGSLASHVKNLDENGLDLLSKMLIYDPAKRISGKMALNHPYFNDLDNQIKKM
T2 sequence (P14635 whole entry partner): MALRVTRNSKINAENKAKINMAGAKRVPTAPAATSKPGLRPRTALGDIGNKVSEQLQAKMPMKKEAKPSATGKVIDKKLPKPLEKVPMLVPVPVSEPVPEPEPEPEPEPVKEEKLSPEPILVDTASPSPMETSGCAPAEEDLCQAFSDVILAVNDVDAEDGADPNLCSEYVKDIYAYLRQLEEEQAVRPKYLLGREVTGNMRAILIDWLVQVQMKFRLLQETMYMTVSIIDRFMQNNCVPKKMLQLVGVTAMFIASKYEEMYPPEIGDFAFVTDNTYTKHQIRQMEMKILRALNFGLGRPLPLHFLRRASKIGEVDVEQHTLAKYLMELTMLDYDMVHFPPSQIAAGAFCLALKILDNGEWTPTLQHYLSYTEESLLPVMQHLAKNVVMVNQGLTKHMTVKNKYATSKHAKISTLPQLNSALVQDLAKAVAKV

| IC50 [1] | IC50 [2] | Structure (SMILES) |
| --- | --- | --- |
| 0.44 nM | 115 nM | CC(C)c1cc(Nc2cnc3ccn(CC4CCOCC4)c3n2)n[nH]1 [Example 1, N-(5-isopropyl-1H-pyrazol-3-yl)-5-((tetrahydro-2H-pyran-4-yl)methyl)-5H-pyrrolo[2,3-b]pyrazin-3-amine] |
| 0.22 nM | 224 nM | C[C@@H](c1cccnc1)n1ccc2ncc(Nc3cc(OC(F)F)[nH]n3)nc21 [Example 5, (S)—N-(5-(difluoromethoxy)-1H-pyrazol-3-yl)-5-(1-(pyridin-3-yl)ethyl)-5H-pyrrolo[2,3-b]pyrazin-3-amine] |
